This passage reports T/C results from PubChem BioAssay AID248 (DTP/NCI, 2004).

Values joined by “and” are separate entries in the source; they are usually repeats but may differ in a detail not shown here. Equal values may be shown once. Inconclusive results and toxic doses are left out.

The experiment relates to L1210 leukemia ip in BDF1 mice, survival T/C. The experiment is described as follows: NCI In Vivo Anticancer Drug Screen. Data for tumor model L1210 Leukemia (intraperitoneal) in B6D2F1 (BDF1) mice. The note with it: endpoint: mean survival time, higher = longer survival. The essentials: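 Tumor cells were implanted, animals were treated, and survival was followed. The result divides the treated measurement by the vehicle-control measurement.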

[1] abbreviates: dose: 100.0 mg/kg/injection, schedule: Q01DX001 (ip), vehicle: carboxymethylcellulose (CMC).
Where [2] appears, read: dose: 200.0 mg/kg/injection, schedule: Q01DX001 (ip), vehicle: carboxymethylcellulose (CMC).
The mark [3] stands for this setting: dose: 100.0 mg/kg/injection, schedule: Q04DX002 (ip), vehicle: Klucel (hydroxypropylcellulose) (HPC).
Where [4] appears, read: dose: 200.0 mg/kg/injection, schedule: Q04DX002 (ip), vehicle: Klucel (hydroxypropylcellulose) (HPC).
Where [5] appears, read: dose: 100.0 mg/kg/injection, schedule: Q04DX003 (ip), vehicle: saline.
Where [6] appears, read: dose: 200.0 mg/kg/injection, schedule: Q04DX003 (ip), vehicle: saline.
Setting [7] is: dose: 400.0 mg/kg/injection, schedule: Q04DX003 (ip), vehicle: saline.
The mark [8] stands for this setting: dose: 100.0 mg/kg/injection, schedule: Q01DX009 (ip), vehicle: saline.
Where [9] appears, read: dose: 200.0 mg/kg/injection, schedule: Q01DX009 (ip), vehicle: saline.
The mark [10] stands for this setting: dose: 400.0 mg/kg/injection, schedule: Q01DX009 (ip), vehicle: saline.

Turning to `O=NN(CCCl)C(=O)Nc1ccc2c(c1)OCO2`, the T/C (dose: 4.0 mg/kg/injection, schedule: Q01DX009 (ip), vehicle: other) was 155 % of control; the T/C (dose: 6.0 mg/kg/injection, schedule: Q01DX009 (ip), vehicle: other) was 163 % of control; the T/C (dose: 9.0 mg/kg/injection, schedule: Q01DX009 (ip), vehicle: other) was 170 % of control; the T/C (dose: 13.0 mg/kg/injection, schedule: Q01DX009 (ip), vehicle: other) was 173 % of control; the T/C (dose: 20.0 mg/kg/injection, schedule: Q01DX001 (ip), vehicle: other) was 180 % of control; the T/C (dose: 20.0 mg/kg/injection, schedule: Q01DX009 (ip), vehicle: other) is 164 % of control. Moreover, the T/C runs as follows: (dose: 22.0 mg/kg/injection, schedule: Q01DX009 (ip), vehicle: carboxymethylcellulose (CMC)) 157 % of control; (dose: 30.0 mg/kg/injection, schedule: Q01DX001 (ip), vehicle: other) 170 % of control; (dose: 30.0 mg/kg/injection, schedule: Q01DX009 (ip), vehicle: other) 166 % of control and 185 % of control; (dose: 44.0 mg/kg/injection, schedule: Q01DX009 (ip), vehicle: other) 104 % of control; (dose: 66.0 mg/kg/injection, schedule: Q01DX001 (ip), vehicle: other) 226 % of control; (dose: 88.0 mg/kg/injection, schedule: Q01DX001 (ip), vehicle: saline) 151 % of control. Further, the T/C under setting [1] was 151 % of control and the T/C under setting [2] is 160 % of control.

Regarding `O=C1CCCCC1C(O)(C(=O)c1ccccc1)c1ccccc1` (centres undefined), the T/C reads like this: under setting [3], 100 % of control; under setting [4], 96 % of control; (dose: 400.0 mg/kg/injection, schedule: Q04DX002 (ip), vehicle: Klucel (hydroxypropylcellulose) (HPC)) 100 % of control.

`O=C1C=CC(=NCC(=O)OCc2ccccc2)O1`: the T/C runs as follows: (dose: 200.0 mg/kg/injection, schedule: Q04DX003 (ip), vehicle: acetone) 91 % of control; (dose: 400.0 mg/kg/injection, schedule: Q04DX003 (ip), vehicle: acetone) 90 % of control.

Turning to `N#CC(Nc1cc(=O)[nH]c(=O)[nH]1)c1ccccc1` (centres undefined), the T/C reads like this: under setting [3], 105 % of control; under setting [4], 108 % of control.

`O=C(COc1ccc(Cl)c(Cl)c1)Nc1ccc[n+](Cc2ccc([N+](=O)[O-])cc2)c1`: the T/C was 95 % of control under setting [5], 95 % of control under setting [6] and 104 % of control under setting [7].

On to `C=CO`, for which the T/C by setting is: (dose: 100.0 mg/kg/injection, schedule: Q01DX001 (ip), vehicle: saline) 103 % of control; (dose: 200.0 mg/kg/injection, schedule: Q01DX001 (ip), vehicle: saline) 95 % of control; (dose: 400.0 mg/kg/injection, schedule: Q01DX001 (ip), vehicle: saline) 89 % of control.

For the compound `CC12CCCC(=O)C1CC/C(=C\c1ccco1)C2=O` (centres undefined), the T/C under setting [8] was 109 % of control; the T/C under setting [5] is 102 % of control; the T/C under setting [9] is 98 % of control; the T/C under setting [6] is 104 % of control; the T/C under setting [10] is 114 % of control; the T/C under setting [7] is 104 % of control.

In the case of `CCC1C(=O)OC2OC(c3ccccc3)(c3ccccc3)NC21` (centres undefined), the T/C is 88 % of control under setting [1]; 88 % of control under setting [2]; 90 % of control (dose: 400.0 mg/kg/injection, schedule: Q01DX001 (ip), vehicle: carboxymethylcellulose (CMC)).

In the case of `CCOC(=O)c1[nH]c2ccccc2c1CN(CC)CC`, the T/C (dose: 75.0 mg/kg/injection, schedule: Q01DX001 (ip), vehicle: carboxymethylcellulose (CMC)) was 94 % of control.

Take `Nc1cc(S(=O)(=O)O)cc2cc(S(=O)(=O)O)cc(S(=O)(=O)O)c12`: the T/C is 107 % of control under setting [8], 104 % of control under setting [9] and 100 % of control under setting [10].

With `NOCC(=O)O`, the T/C runs as follows: (dose: 5.0 mg/kg/injection, schedule: Q01DX Z (ip), vehicle: saline) 112 % of control; (dose: 8.0 mg/kg/injection, schedule: Q01DX Z (ip), vehicle: saline) 97 % of control; (dose: 12.0 mg/kg/injection, schedule: Q01DX Z (ip), vehicle: saline) 103 % of control; (dose: 12.5 mg/kg/injection, schedule: Q01DX001 (ip), vehicle: carboxymethylcellulose (CMC)) 106 % of control; (dose: 18.0 mg/kg/injection, schedule: Q01DX Z (ip), vehicle: saline) 103 % of control; (dose: 25.0 mg/kg/injection, schedule: Q01DX001 (ip), vehicle: carboxymethylcellulose (CMC)) 97 % of control. Besides, the T/C (dose: 50.0 mg/kg/injection, schedule: Q01DX001 (ip), vehicle: carboxymethylcellulose (CMC)) was 95 % of control.

Take `COc1cc(CNC(=O)NCCCl)cc(OC)c1OC`: the T/C runs as follows: (dose: 100.0 mg/kg/injection, schedule: Q01DX001 (ip), vehicle: Klucel (hydroxypropylcellulose) (HPC)) 96 % of control; (dose: 100.0 mg/kg/injection, schedule: Q01DX009 (ip), vehicle: Klucel (hydroxypropylcellulose) (HPC)) 94 % of control; (dose: 200.0 mg/kg/injection, schedule: Q01DX001 (ip), vehicle: Klucel (hydroxypropylcellulose) (HPC)) 88 % of control; (dose: 200.0 mg/kg/injection, schedule: Q01DX009 (ip), vehicle: Klucel (hydroxypropylcellulose) (HPC)) 95 % of control; (dose: 400.0 mg/kg/injection, schedule: Q01DX001 (ip), vehicle: Klucel (hydroxypropylcellulose) (HPC)) 98 % of control; (dose: 400.0 mg/kg/injection, schedule: Q01DX009 (ip), vehicle: Klucel (hydroxypropylcellulose) (HPC)) 90 % of control.

`CC(C)Nc1ccc(Nc2ccc(NC(C)C)cc2)cc1`: the T/C was 102 % of control (dose: 1.56 mg/kg/injection, schedule: Q04DX003 (ip), vehicle: alcohol); 98 % of control (dose: 3.12 mg/kg/injection, schedule: Q01DX009 (ip), vehicle: alcohol); 109 % of control (dose: 3.12 mg/kg/injection, schedule: Q04DX003 (ip), vehicle: alcohol); 94 % of control (dose: 6.25 mg/kg/injection, schedule: Q01DX009 (ip), vehicle: alcohol); 105 % of control (dose: 6.25 mg/kg/injection, schedule: Q04DX003 (ip), vehicle: alcohol); 96 % of control (dose: 12.5 mg/kg/injection, schedule: Q01DX009 (ip), vehicle: alcohol). Besides, the T/C is, setting by setting: (dose: 12.5 mg/kg/injection, schedule: Q04DX003 (ip), vehicle: alcohol) 95 % of control; (dose: 18.0 mg/kg/injection, schedule: Q01DX009 (ip), vehicle: alcohol) 104 % of control.

For `O=C(COc1ccc([N+](=O)[O-])cc1Cl)Nc1cccc(S(=O)(=O)F)c1`, the T/C (dose: 100.0 mg/kg/injection, schedule: Q04DX003 (ip), vehicle: Klucel (hydroxypropylcellulose) (HPC)) was 98 % of control; the T/C (dose: 200.0 mg/kg/injection, schedule: Q04DX003 (ip), vehicle: Klucel (hydroxypropylcellulose) (HPC)) is 106 % of control; the T/C (dose: 400.0 mg/kg/injection, schedule: Q04DX003 (ip), vehicle: Klucel (hydroxypropylcellulose) (HPC)) is 91 % of control.

Take `CCCC(C(=O)O)C1=CCCC1` (centres undefined): the T/C (dose: 100.0 mg/kg/injection, schedule: Q01DX009 (ip), vehicle: saline with Tween-80) was 88 % of control; the T/C under setting [5] is 98 % of control; the T/C under setting [6] was 103 % of control; the T/C under setting [7] is 101 % of control.

For `c1ccc2c(N=NSc3ncnc4nc[nH]c34)c3ccccc3nc2c1`, the T/C is 105 % of control (dose: 5.0 mg/kg/injection, schedule: Q01DX001 (ip), vehicle: carboxymethylcellulose (CMC)); 115 % of control (dose: 10.0 mg/kg/injection, schedule: Q01DX001 (ip), vehicle: carboxymethylcellulose (CMC)); 98 % of control (dose: 20.0 mg/kg/injection, schedule: Q01DX001 (ip), vehicle: carboxymethylcellulose (CMC)); 107 % of control (dose: 40.0 mg/kg/injection, schedule: Q01DX001 (ip), vehicle: carboxymethylcellulose (CMC)).

Regarding `[C-]#[N+]CCc1ccccc1`, the T/C reads like this: (dose: 100.0 mg/kg/injection, schedule: Q01DX001 (ip), vehicle: saline with Tween-80) 98 % of control; (dose: 200.0 mg/kg/injection, schedule: Q01DX001 (ip), vehicle: saline with Tween-80) 96 % of control.
